# Key:
# Type in all cases: in vivo
# mice = assay: Toxicity / minimal motor impairment after ICV administration (6 Hz screen); conditions: for Toxic (animals toxic over number tested): 0.5 h
# Text: Doses listed as pmol/5 microliter injection volume for ICV. TD50 at 0.5 hrs: 36.15 (9.35-121.74) 1.57+/−0.51.
# Minimal toxicity was identified in mice by the rotorod procedure.
# [1] = tested on: formalin-induced paw-licking; assay: Formalin test (paw licking) in mice
# Protocol: The formalin test for antinociceptive activity is described in numerous publications, e.g., Hunskaar, S., O. B. Fasmer, and K. Hole, J. Neurosci. […] The formalin test is accepted as an art recognized model of persistent clinical pain.
# Male Swiss Webster NIH mice (20-30 g; Harlan, San Diego, Calif.) were used in the experiments described herein. Food was withdrawn on the day of experiment. Mice were placed in Plexiglass jars for at least 1 hour to accommodate to the environment. Following the accommodation period, mice were weighed and given either a huperzine compound administered intraperitoneal (i.p.) or oral (p.o.), or the appropriate volume of vehicle (10% Tween-80). Fifteen minutes after the i.p. dosing, and 30 minutes after the p.o. dosing mice were injected with formalin (20 μL of 5% formaldehyde solution in saline) into the dorsal surface of the right hind paw. Mice were transferred to the Plexiglass jars and monitored for the amount of time spent licking or biting the injected paw. Periods of licking and biting were recorded in 5 minute intervals for 40 minutes after the formalin injection. All experiments were done in a blinded manner. The early phase (acute) of the formalin response is measured as licking/biting between 0-5 minutes, and the late phase (inflammatory) is measured from 10-40 minutes. Differences between vehicle and drug treated groups are analyzed by one-way analysis of variance (ANOVA). A P value<0.05 is considered significant.
# Fifteen minutes after the i.p. dosing, mice were injected with formalin (20 μL of 5% formaldehyde solution in saline) into the dorsal surface of the right hind paw. Periods of licking and biting were recorded in 5 minute intervals for 40 minutes after the formalin injection as shown below in Tables 1 and 2. All experiments were done according to the art-recognized Anticonvulsant Screening Program of the NINDS at the University of Utah.
# Duration of paw licking in the tables below is expressed in seconds.
# rats = assay: Toxicity (TOX) / minimal motor impairment, rats, oral
# [2] = tested on: Subcutaneous Metrazol (pentylenetetrazol; SCMET) seizures; assay: Subcutaneous Metrazol (SCMET / scPTZ) model, rats, oral
# Protocol: (§1) Huperzine A was evaluated in the Maximal Electroshock (MES) and Subcutaneous Metrazol (pentylenetetrazol; SCMET) models of generalized tonic-clonic and myoclonic seizures, respectively in mice and rats.
# The Subcutaneous Metrazole (SCMET) model is also an art-recognized test for therapeutic agents for epilepsy, and in particular, is useful for investigating petite mal seizures. A Metrazole dose of 85 mg/kg was administered subcutaneously to induce seizures. Huperzine was then administered and the animals observed.
# Peak anticonvulsant activity was observed one-hour after p.o. administration of 1 mg/kg.
# [3] = tested on: maximal electroshock seizure (MES); assay: Maximal Electroshock (MES) model, mice i.p.; conditions: 1 mg/kg
# Protocol: as §1
# The maximal electroshock (MES) model is an art recognized test, useful to investigate the efficacy of therapeutic agents against grand mal seizures. Maximal seizures were induced by the application of electrical current to the brain via corneal electrodes. The stimulus parameters for mice were 50 mA in a pulse of 60 Hz for 200 ms. The animals were given the huperzine dissolved in methyl cellulose and spasm inhibition was recorded as a measure of anticonvulsant activity.
# Huperzine A was either administered in a soluble form (SOL) or as a suspension (SUS). […]
# Male, 18-25 g CF1 mice and 100-125 g Sprague-Dawley rats (Charles River Laboratories, Wilmington, Mass.) were used as the experimental animals. […] The ability of the test substance to prevent seizures induced by 6 Hz corneal stimulation (32 mA, 3 sec duration) was assessed at various times after i.p. administration of 1 mg/kg HupA For assessment of hippocampal kindling, HupA (1 mg/kg, i.p.) was administered. The ability of the compound to block the expression of hippocampal kindled seizures was evaluated using the rapid hippocampal kindling model (White et al., 2002). […]
smiles,measurement,setting,value
C/C=C1\[C@H]2C=C(C)C[C@]1(N)c1ccc(=O)[nH]c1C2 [Huperzine A],body temperature,mice,Dose-dependent drop in body temperatures
same,Toxic (animals toxic over number tested),mice; dose 0.01 (pmol/5 microliter; head mg/kg),0/8 Toxic
same,Toxic (animals toxic over number tested),mice; dose 1 (pmol/5 microliter; head mg/kg),0/8 Toxic
same,Toxic (animals toxic over number tested),mice; dose 10 (pmol/5 microliter; head mg/kg),2/8 toxic
same,Toxic (animals toxic over number tested),mice; dose 100 (pmol/5 microliter; head mg/kg),6/8 Toxic
same,Toxic (animals toxic over number tested),mice; dose 1000 (pmol/5 microliter; head mg/kg),4/4 toxic
same,TD50,"mice; 0.5 hrs, (95% interval in brackets)",36.15 (9.35-121.74) pmol/5 microliter injection volume
same,Response comment,"mice; dose 10, 0.25 h",Minimal motor impairment
same,Response comment,"mice; dose 10, 0.5 h",Minimal motor impairment
same,Response comment,"mice; dose 100, 0.25 h",Minimal motor impairment
same,Response comment,"mice; dose 100, 0.5 h",Minimal motor impairment
same,Response comment,"mice; dose 100, 1 h",Minimal motor impairment
same,"Area Under the Curve, % of Control","[1]; 0.5 mg/kg i.p., Acute phase",2.8%
same,"Area Under the Curve, % of Control","[1]; 0.5 mg/kg i.p., Inflammatory phase",0.0%
same,inhibition of phase 1 (acute) pain response,[1]; 1 mg/kg i.p.,complete inhibition
same,inhibition of phase 2 (inflammatory) pain response,[1]; 1 mg/kg i.p.,complete inhibition
same,"Area Under the Curve, % of Control","[1]; 1 mg/kg i.p., Acute phase",0.0%
same,"Area Under the Curve, % of Control","[1]; 1 mg/kg i.p., Inflammatory phase",0.0%
same,behavioral impairment at anticonvulsant doses,rats,marked motor impairment
same,toxicity,rats; 1 mg/kg oral,no toxicity
same,time of peak anticonvulsant activity,[2]; after p.o. administration of 1 mg/kg,one-hour
same,time of peak activity post administration,"[2]; rats, 1 mg/kg oral",between 30 minutes and two hours
same,protection in the mouse MES test (FIG. 1),[3],time-dependent protection
